One assay addresses T1, human σ1 receptor (Homo sapiens, UniProt Q99720).
T1 construct: expressed in transfected cells; host or cells: HEK-293
Briefly: Human σ1 receptor radioligand assay ([3H](+)-pentazocine, transfected HEK-293 membranes). The note with it: class scale, read-out: Binding σ-1 Ki. The procedure, abridged:
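Compounds were tested at a single 1 or 10 μM concentration (% inhibition) or at five concentrations to give Ki. They competed with 5 nM [3H](+)-pentazocine for transfected HEK-293 membranes (7 μg) in 50 mM Tris-HCl pH 8 at 37° C for 120 minutes. Nonspecific binding was set with 10 μM haloperidol, and a filtration scintillation read-out was used.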

The next assay has as its target T2, human σ2/TMEM97 receptor (Homo sapiens, UniProt Q5BJF2).
T2 construct: expressed in transfected cells; host or cells: HEK-293
Briefly: Binding assay to human σ2/TMEM97 receptor ([3H]-DTG, transfected HEK-293 membranes). The note with it: class scale, read-out: Binding σ-2 Ki. In short, it runs like this:
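Competition against 10 nM [3H]-DTG (Tris-HCl 50 mM, pH 8.0, 25 °C, 120 min) using 15 μg transfected HEK-293 membrane protein, with 10 μM haloperidol defining NSB. Bound radioactivity counted after filtration; results as single-point % inhibition (1 or 10 μM) or five-point Ki.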

A value given as a limit tells only on which side of the number the result lay.

T2 sequence (Q5BJF2 whole entry): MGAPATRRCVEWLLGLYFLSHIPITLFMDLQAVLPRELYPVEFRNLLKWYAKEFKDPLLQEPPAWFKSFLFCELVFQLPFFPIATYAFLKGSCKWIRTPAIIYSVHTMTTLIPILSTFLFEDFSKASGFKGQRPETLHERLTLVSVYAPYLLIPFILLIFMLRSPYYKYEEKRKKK
T1 sequence (Q99720 whole entry): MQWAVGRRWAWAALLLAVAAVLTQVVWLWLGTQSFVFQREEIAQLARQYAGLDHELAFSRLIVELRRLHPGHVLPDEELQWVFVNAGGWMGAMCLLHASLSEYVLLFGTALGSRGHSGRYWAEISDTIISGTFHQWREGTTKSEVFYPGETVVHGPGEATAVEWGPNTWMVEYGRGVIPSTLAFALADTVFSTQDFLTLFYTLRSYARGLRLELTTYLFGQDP

Usually Ki stands for a measure of affinity in units of concentration, obtained from inhibition or displacement. With `CCn1nc(-c2cnn(C(C)C)c2)c(C(=O)NC2CC3(CCN(CCC(C)(C)C)CC3)C2)c1Cl` [Example 149, 5-Chloro-N-(7-(3,3-dimethylbutyl)-7-azaspiro[3.5]nonan-2-yl)-1-ethyl-1′-isopropyl-1H,1′H-[3,4′-bipyrazole]-4-carboxamide], the inhibition constant Ki on human σ1 receptor was 100 to 500 nM; at human σ2/TMEM97 receptor, under 100 nM.
The matching figures for `CCn1nc(-c2cc(C)on2)c(C(=O)N2CCCC3(CCN(CCC(C)(C)C)CC3)C2)c1Cl` [Example 150, (5-Chloro-1-ethyl-3-(5-methylisoxazol-3-yl)-1H-pyrazol-4-yl)(9-(3,3-dimethylbutyl)-2,9-diazaspiro[5.5]undecan-2-yl)methanone]: 100 to 500 nM and under 100 nM.
The matching figures for `CCn1nc(-c2cccc(C)n2)c(C(=O)NC2CCC3(CC2)CCN(CCC(C)(C)C)CC3)c1Cl` [Example 151, 5-Chloro-N-(3-(3,3-dimethylbutyl)-3-azaspiro[5.5]undecan-9-yl)-1-ethyl-3-(6-methylpyridin-2-yl)-1H-pyrazole-4-carboxamide]: under 100 nM and under 100 nM.
The like results for `CCn1nc(-c2cc(C(C)C)on2)c(C(=O)N2CCCC3(CCN(CCC(C)(C)C)CC3)C2)c1Cl` [Example 152, (5-Chloro-1-ethyl-3-(5-isopropylisoxazol-3-yl)-1H-pyrazol-4-yl)(9-(3,3-dimethylbutyl)-2,9-diazaspiro[5.5]undecan-2-yl)methanone] were, in that order, 100 to 500 nM and under 100 nM.
`Cc1cc(-c2nn(C)c(Cl)c2C(=O)NC2CC3(CCN(Cc4ccccc4)CC3)C2)no1` [Example 153, N-(7-Benzyl-7-azaspiro[3.5]nonan-2-yl)-5-chloro-1-methyl-3-(5-methylisoxazol-3-yl)-1H-pyrazole-4-carboxamide]: the Ki at human σ1 receptor and on human σ2/TMEM97 receptor was 100 to 500 nM each time.
For `Cc1cc(-c2nn(C)c(Cl)c2C(=O)NC2CC3(CCN(CC(C)(C)C)CC3)C2)no1` [Example 154, 5-Chloro-1-methyl-3-(5-methylisoxazol-3-yl)-N-(7-neopentyl-7-azaspiro[3.5]nonan-2-yl)-1H-pyrazole-4-carboxamide], the Ki on human σ1 receptor and at human σ2/TMEM97 receptor was 100 to 500 nM each time.
Turning to `Cn1nc(-c2cccc(C(F)(F)F)n2)c(C(=O)N2CCCC3(CCN(CCC(C)(C)C)CC3)C2)c1Cl` [Example 155, (5-Chloro-1-methyl-3-(6-(trifluoromethyl)pyridin-2-yl)-1H-pyrazol-4-yl)(9-(3,3-dimethylbutyl)-2,9-diazaspiro[5.5]undecan-2-yl)methanone], the Ki at human σ1 receptor is 100 to 500 nM; on human σ2/TMEM97 receptor, under 100 nM.
The like results for `Cc1cc(-c2nn(C)c(Cl)c2C(=O)N2CCCC3(CCN(Cc4ccccc4)CC3)C2)no1` [Example 156, (9-Benzyl-2,9-diazaspiro[5.5]undecan-2-yl)(5-chloro-1-methyl-3-(5-methylisoxazol-3-yl)-1H-pyrazol-4-yl)methanone] were, in that order, 100 to 500 nM and under 100 nM.
Regarding `Cc1cc(-c2nn(C)c(Cl)c2C(=O)N2CCCC3(CCN(CC(C)(C)C)CC3)C2)no1` [Example 157, (5-Chloro-1-methyl-3-(5-methylisoxazol-3-yl)-1H-pyrazol-4-yl)(9-neopentyl-2,9-diazaspiro[5.5]undecan-2-yl)methanone], the values for the Ki on human σ1 receptor and at human σ2/TMEM97 receptor were over 1000 nM and under 100 nM, respectively.
The matching figures for `CCn1nc(-c2cc(C)on2)c(C(=O)NCCC2CCN(CCC(C)(C)C)CC2)c1Cl` [Example 158, 5-Chloro-N-(2-(1-(3,3-dimethylbutyl)piperidin-4-yl)ethyl)-1-ethyl-3-(5-methylisoxazol-3-yl)-1H-pyrazole-4-carboxamide]: 100 to 500 nM and under 100 nM.
Turning to `CCn1nc(-c2cc(C)on2)c(C(=O)NC2CCN(CCC(C)(C)C)CC2)c1Cl` [Example 159, 5-Chloro-N-(1-(3,3-dimethylbutyl)piperidin-4-yl)-1-ethyl-3-(5-methylisoxazol-3-yl)-1H-pyrazole-4-carboxamide], the Ki on human σ1 receptor and on human σ2/TMEM97 receptor was under 100 nM in each case.
For the molecule `CCn1nc(-c2cc(C)on2)c(C(=O)NC2CCCN(CCC(C)(C)C)CC2)c1Cl` (stereo not shown) [Example 160, 5-Chloro-N-(1-(3,3-dimethylbutyl)azepan-4-yl)-1-ethyl-3-(5-methylisoxazol-3-yl)-1H-pyrazole-4-carboxamide], the Ki at human σ1 receptor and at human σ2/TMEM97 receptor was under 100 nM each time.
Turning to `CCn1nc(-c2cccc(C(F)(F)F)n2)c(C(=O)NC2CCN(CCC(C)(C)C)CC2)c1Cl` [Example 161, 5-Chloro-N-(1-(3,3-dimethylbutyl)piperidin-4-yl)-1-ethyl-3-(6-(trifluoromethyl)pyridin-2-yl)-1H-pyrazole-4-carboxamide], the Ki at human σ1 receptor and on human σ2/TMEM97 receptor was under 100 nM in each case.
For the molecule `CCn1nc(-c2cc(C(C)C)on2)c(C(=O)NC2CCN(CCC(C)(C)C)CC2)c1Cl` [Example 162, 5-Chloro-N-(1-(3,3-dimethylbutyl)piperidin-4-yl)-1-ethyl-3-(5-isopropylisoxazol-3-yl)-1H-pyrazole-4-carboxamide], the Ki at human σ1 receptor and on human σ2/TMEM97 receptor was under 100 nM each time.
On to `CCn1nc(-c2ccon2)c(C(=O)NC2CCN(CCC(C)(C)C)CC2)c1Cl` [Example 163, 5-Chloro-N-(1-(3,3-dimethylbutyl)piperidin-4-yl)-1-ethyl-3-(isoxazol-3-yl)-1H-pyrazole-4-carboxamide], for which the Ki was 100 to 500 nM on human σ1 receptor and under 100 nM at human σ2/TMEM97 receptor.
For the molecule `CCn1nc(-c2cc(C)on2)c(C(=O)N[C@H]2CCN(CCC(C)(C)C)C2)c1Cl` [Example 164, (S)-5-Chloro-N-(1-(3,3-dimethylbutyl)pyrrolidin-3-yl)-1-ethyl-3-(5-methylisoxazol-3-yl)-1H-pyrazole-4-carboxamide], the values for the Ki at human σ1 receptor and at human σ2/TMEM97 receptor were under 100 nM and 100 to 500 nM, respectively.
The matching figures for `CCn1nc(-c2cc(C)on2)c(C(=O)N[C@@H]2CCN(CCC(C)(C)C)C2)c1Cl` [Example 165, (R)-5-Chloro-N-(1-(3,3-dimethylbutyl)pyrrolidin-3-yl)-1-ethyl-3-(5-methylisoxazol-3-yl)-1H-pyrazole-4-carboxamide]: under 100 nM and under 100 nM.
For the molecule `Cc1cc(-c2nn(C)c(Cl)c2C(=O)NC2CCN(CCC(C)(C)C)CC2)no1` [Example 166, 5-Chloro-N-(1-(3,3-dimethylbutyl)piperidin-4-yl)-1-methyl-3-(5-methylisoxazol-3-yl)-1H-pyrazole-4-carboxamide], the Ki on human σ1 receptor is 100 to 500 nM; at human σ2/TMEM97 receptor it was under 100 nM.
On to `Cn1nc(-c2cccc(C(F)(F)F)n2)c(C(=O)NC2CCN(CCC(C)(C)C)CC2)c1Cl` [Example 167, 5-Chloro-N-(1-(3,3-dimethylbutyl)piperidin-4-yl)-1-methyl-3-(6-(trifluoromethyl)pyridin-2-yl)-1H-pyrazole-4-carboxamide], for which the Ki on human σ1 receptor and on human σ2/TMEM97 receptor was under 100 nM in each case.
`Cc1cccc(-c2nn(C)c(Cl)c2C(=O)NC2CCN(CCC(C)(C)C)CC2)n1` [Example 168, 5-Chloro-N-(1-(3,3-dimethylbutyl)piperidin-4-yl)-1-methyl-3-(6-methylpyridin-2-yl)-1H-pyrazole-4-carboxamide]: the Ki at human σ1 receptor is 100 to 500 nM; at human σ2/TMEM97 receptor, under 100 nM.

Source of the values: US20240239781A1, “1H-PYRAZOLE DERIVATIVES AS SIGMA LIGANDS” (ACONDICIONAMIENTO TARRASENSE, priority 2021, published 2024).
